Results as given in patent US10131652B2, “Pyrimidinyloxy benzene derivatives as herbicides” (E. I. DU PONT DE NEMOURS AND COMPANY, priority 2014, dated 2018).

Legend:
Assay type in all cases: in vivo
[1] = system: barnyardgrass (Echinochloa crus-galli); experiment: Test B pre-/postemergence plant response
Method in brief: (§1)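 Evaluation is visual, about 10 days after application, rating injury from 0 (none) to 100 (complete control) relative to untreated controls. Application was a preemergence soil spray on seeded pots or a postemergence spray on one- to two-leaf plants.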

corn (Zea mays) = experiment: Test B pre-/postemergence plant response
Method in brief: as §1

[2] = system: giant foxtail (Setaria faberii); experiment: Test B pre-/postemergence plant response
Method in brief: as §1

[3] = system: pigweed (Amaranthus retroflexus); experiment: Test B pre-/postemergence plant response
Method in brief: as §1

[4] = system: wheat (Triticum aestivum); experiment: Test B pre-/postemergence plant response
Method in brief: as §1

[5] = system: barnyardgrass (Echinochloa crus-galli); experiment: Test C flooded paddy test plant response; details: Flood, 250 g ai/ha; scale of 0 to 100 where 0 is no effect and 100 is complete control; 13 to 15 days
Method in brief: (§2)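 Scale 0 (no effect) to 100 (complete control), assigned visually versus controls after 13–15 d greenhouse. Application: directly to paddy water, 3 cm flood depth kept constant, 2-leaf stage.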

[6] = system: ducksalad (Heteranthera limosa); experiment: Test C flooded paddy test plant response; details: Flood, 250 g ai/ha; scale of 0 to 100 where 0 is no effect and 100 is complete control; 13 to 15 days
Method in brief: as §2

rice (Oryza sativa) = experiment: Test C flooded paddy test plant response; details: Flood, 250 g ai/ha; scale of 0 to 100 where 0 is no effect and 100 is complete control; 13 to 15 days
Method in brief: as §2

[7] = system: small-flower umbrella sedge (Cyperus difformis); experiment: Test C flooded paddy test plant response; details: Flood, 250 g ai/ha; scale of 0 to 100 where 0 is no effect and 100 is complete control; 13 to 15 days
Method in brief: as §2

[8] = system: blackgrass (Alopecurus myosuroides); experiment: Test D pre-/postemergence plant response
Description: (§3) Seeds of plant species selected from blackgrass (Alopecurus myosuroides), Italian ryegrass (Lolium multiflorum), winter wheat (Triticum aestivum), galium (catchweed bedstraw, Galium aparine), corn (Zea mays), large (Lg) crabgrass (Digitaria sanguinalis), giant foxtail (Setaria faberii), johnsongrass (Sorghum halepense), lambsquarters (Chenopodium album), morningglory (Ipomoea coccinea), yellow nutsedge (Cyperus esculentus), pigweed (Amaranthus retroflexus), ragweed (common ragweed, Ambrosia elatior), soybean (Glycine max), bamyardgrass (Echinochloa crus-galli), oilseed rape (Brassica napus), waterhemp (common waterhemp, Amaranthus rudis), and velvetleaf (Abutilon theophrasti) were planted into a blend of loam soil and sand and treated preemergence with test chemicals formulated in a non-phytotoxic solvent mixture which included a surfactant. At the same time, plants selected from these crop and weed species and also kochia (Kochia scoparia), wild oat (Avena fatua), and chickweed (common chickweed, Stellaria media) were planted in pots containing Redi-Earth® planting medium (Scotts Company, 14111 Scottslawn Road, Marysville, Ohio 43041) comprising spaghnum peat moss, vermiculite, wetting agent and starter nutrients and treated with postemergence applications of test chemicals formulated in the same manner. Plants ranged in height from 2 to 18 cm (1- to 4-leaf stage) for postemergence treatments. Treated plants and controls were maintained in a greenhouse for 13 to 15 days, after which time all species were compared to controls and visually evaluated. Plant response ratings, summarized in Table D, are based on a scale of 0 to 100 where 0 is no effect and 100 is complete control. A dash (-) response means no test result.

[9] = system: galium (catchweed bedstraw, Galium aparine); experiment: Test D pre-/postemergence plant response
Description: as §3

[10] = system: johnsongrass (Sorghum halepense); experiment: Test D pre-/postemergence plant response
Description: as §3

[11] = system: lambsquarters (Chenopodium album); experiment: Test D pre-/postemergence plant response
Description: as §3

[12] = system: large (Lg) crabgrass (Digitaria sanguinalis); experiment: Test D pre-/postemergence plant response
Description: as §3

[13] = system: velvetleaf (Abutilon theophrasti); experiment: Test D pre-/postemergence plant response
Description: as §3

[14] = system: winter wheat (Triticum aestivum); experiment: Test D pre-/postemergence plant response
Description: as §3

[15] = 125 g ai/ha, postemergence, 0 to 100 scale, 0 no effect, 100 complete control
[16] = Postemergence, 500 g ai/ha, 0 to 100 scale (0 no effect, 100 complete control)
[17] = Preemergence, 125 g ai/ha, 0 to 100 scale where 0 is no effect and 100 is complete control
[18] = Preemergence, 500 g ai/ha, 0 to 100 scale where 0 is no effect and 100 is complete control
[19] = Postemergence, 16 g ai/ha, scale 0 to 100 (0 no effect, 100 complete control)
[20] = Postemergence, 31 g ai/ha, scale 0 to 100 (0 no effect, 100 complete control)
[21] = Postemergence, 62 g ai/ha, scale 0 to 100, 0 no effect, 100 complete control
[22] = Postemergence, 125 g ai/ha, scale 0 to 100, 0 no effect, 100 complete control
[23] = Preemergence, 16 g ai/ha, scale 0 to 100 (0 no effect, 100 complete control)
[24] = Preemergence, 31 g ai/ha, scale 0 to 100 (0 no effect, 100 complete control)
[25] = Preemergence, 62 g ai/ha, scale 0 to 100 (0 no effect, 100 complete control)

## FC(F)(F)c1cc(-c2ccccc2Oc2ncc(Cl)cn2)ncn1 [Compound 54]
[1]; [15]
  Plant response rating, Barnyardgrass: 20
[1]; [16]
  Plant response rating, Barnyardgrass: 100
[1]; [17]
  Plant response rating, Barnyardgrass: 60
[1]; [18]
  Plant response rating, Barnyardgrass: 100
Corn (Zea mays); [15]
  Plant response rating, Corn: 0
Corn (Zea mays); [16]
  Plant response rating, Corn: 0
[2]; [15]
  Plant response rating, Foxtail, Giant: 80
[2]; [16]
  Plant response rating, Foxtail, Giant: 100
[2]; [17]
  Plant response rating, Foxtail, Giant: 100
[2]; [18]
  Plant response rating, Foxtail, Giant: 100
[3]; [15]
  Plant response rating, Pigweed: 100
[3]; [16]
  Plant response rating, Pigweed: 100
[3]; [17]
  Plant response rating, Pigweed: 100
[3]; [18]
  Plant response rating, Pigweed: 100
[4]; [15]
  Plant response rating, Wheat: 0
[4]; [16]
  Plant response rating, Wheat: 0
[5]
  Barnyardgrass plant response rating: 0
[6]
  Ducksalad plant response rating: 60
Rice (Oryza sativa)
  Rice plant response rating: 0
[7]
  Sedge, Umbrella plant response rating: 0
[8]; [19]
  Blackgrass plant response rating: 0
[8]; [20]
  Blackgrass plant response rating: 5
[8]; [21]
  Plant response rating, Blackgrass: 5
[8]; [22]
  Plant response rating, Blackgrass: 5
[8]; Preemergence, 125 g ai/ha
  Plant response rating (scale 0 to 100), Blackgrass: 70
[8]; [23]
  Plant response rating, Blackgrass: 5
[8]; [24]
  Plant response rating, Blackgrass: 5
[8]; [25]
  Plant response rating, Blackgrass: 40
[9]; [19]
  Galium plant response rating: 50
[9]; [20]
  Galium plant response rating: 55
[9]; [21]
  Plant response rating, Galium: 55
[9]; [22]
  Plant response rating, Galium: 75
[9]; Preemergence, 125 g ai/ha
  Plant response rating (scale 0 to 100), Galium: 85
[9]; [23]
  Plant response rating, Galium: 50
[9]; [24]
  Plant response rating, Galium: 85
[9]; [25]
  Plant response rating, Galium: 60
[10]; [19]
  Johnsongrass plant response rating: 0
[10]; [20]
  Johnsongrass plant response rating: 0
[10]; [21]
  Plant response rating, Johnsongrass: 5
[10]; [22]
  Plant response rating, Johnsongrass: 5
[10]; Preemergence, 125 g ai/ha
  Plant response rating (scale 0 to 100), Johnsongrass: 40
[10]; [23]
  Plant response rating, Johnsongrass: 0
[10]; [24]
  Plant response rating, Johnsongrass: 0
[10]; [25]
  Plant response rating, Johnsongrass: 10
[11]; [19]
  Lambsquarters plant response rating: 0
[11]; [20]
  Lambsquarters plant response rating: 5
[11]; [21]
  Plant response rating, Lambsquarters: 5
[11]; [22]
  Plant response rating, Lambsquarters: 70
[11]; Preemergence, 125 g ai/ha
  Plant response rating (scale 0 to 100), Lambsquarters: 85
[11]; [23]
  Plant response rating, Lambsquarters: 5
[11]; [24]
  Plant response rating, Lambsquarters: 60
[11]; [25]
  Plant response rating, Lambsquarters: 85
[12]; [19]
  Crabgrass, Large plant response rating: 5
[12]; [20]
  Crabgrass, Large plant response rating: 5
[12]; [21]
  Plant response rating, Crabgrass, Large: 5
[12]; [22]
  Plant response rating, Crabgrass, Large: 5
[12]; Preemergence, 125 g ai/ha
  Plant response rating (scale 0 to 100), Crabgrass, Large: 100
[12]; [23]
  Plant response rating, Crabgrass, Large: 10
[12]; [24]
  Plant response rating, Crabgrass, Large: 75
[12]; [25]
  Plant response rating, Crabgrass, Large: 90
[13]; [19]
  Velvetleaf plant response rating: 0
[13]; [20]
  Velvetleaf plant response rating: 5
[13]; [21]
  Plant response rating, Velvetleaf: 40
[13]; [22]
  Plant response rating, Velvetleaf: 40
[13]; Preemergence, 125 g ai/ha
  Plant response rating (scale 0 to 100), Velvetleaf: 100
[13]; [23]
  Plant response rating, Velvetleaf: 15
[13]; [24]
  Plant response rating, Velvetleaf: 70
[13]; [25]
  Plant response rating, Velvetleaf: 85
[14]; [19]
  Wheat plant response rating: 0
[14]; [20]
  Wheat plant response rating: 0
[14]; [21]
  Plant response rating, Wheat: 0
[14]; [22]
  Plant response rating, Wheat: 5
[14]; Preemergence, 125 g ai/ha
  Plant response rating (scale 0 to 100), Wheat: 0
[14]; [23]
  Plant response rating, Wheat: 0
[14]; [24]
  Plant response rating, Wheat: 0
[14]; [25]
  Plant response rating, Wheat: 0
